Experimental data published in US9486475B2 (AMGEN RESEARCH (MUNICH) GMBH, priority 2013, dated 2016).

How the values were obtained:
non-Hodgkin's lymphoma = settings: cited from earlier work
follicular lymphoma = experiment: Blinatumomab treatment of patient 109-036 (follicular lymphoma): CT tumor response; type: in vivo, human; settings: Blinatumomab 5 μg/m^2/24 h for 1 week, then 60 μg/m^2/24 h, with PPS
Method: (§1) Patient was then treated for 7 weeks at 60 μg/m^2/24 h of Blinatumomab.
(§2) 6× CHOP 12/02-04/03 • 2. Induction according to Dexa-BEAM Protocol 05/03 • 3. Autologous SCT 08/03 • Date of last prior treatment: 08/03 • Treatment start: 10.5.2010 • Major Involvement: • 1. Supraclavicular • 2. Mediastinal • 3. Mesenterial (small intestinal involvement?) • 4W CT: PR -63% • 8W CT: CRu:-79% • EOS: 30.7.2010
(FL: follicular lymphoma, SCT: stem cell therapy, PR: partial remission, Cru: complete remission (unconfirmed), EOS: end of study).

B cell malignancies = settings: human, in vivo; cited from earlier work
[1] = tested on: neurological adverse effects caused by a CD3 binding domain; experiment: PPS co-treatment of patient 109-036 during Blinatumomab start and dose escalation: neurological adverse effects; type: in vivo, human
Method: as §1, §2

[2] = continuous administration, non-Hodgkin's lymphoma patients

Substance | Dose level at which partial and complete tumor regressions were first observed (non-Hodgkin's lymphoma; [2]) [milligrams/m^2/d] | Effect on tumor cells in bone marrow and liver (non-Hodgkin's lymphoma; [2]) | Patients who experienced a tumor regression (non-Hodgkin's lymphoma; dose level of 0.06 milligrams/m^2/d) | Effect on lymphoma target cells in blood (non-Hodgkin's lymphoma; doses as low as 0.005 milligrams per square meter per day, continuous, four weeks) | Neurological reactions in the clinical trial (non-Hodgkin's lymphoma; human, in vivo) | 4W CT: change (follicular lymphoma; 4 weeks) [%] | 8W CT: change (follicular lymphoma; 8 weeks) [%] | 8W CT: response category (follicular lymphoma; 8 weeks) | Patients with an early neurological reaction (B cell malignancies) | Apraxia and aphasia ([1]; patient 109-036, low B:T cell ratio, PPS 100 mg i.v. bolus 3 h before treatment start and before dose increase (day 8), then 300 mg/24 h for 48 h, Blinatumomab 5 then 60 μg/m^2/24 h) | Tremor (remaining neurological adverse effect) ([1]; patient 109-036, PPS 100 mg i.v. bolus then 300 mg/24 h for 48 h, Blinatumomab escalation to 60 μg/m^2/24 h)
Blinatumomab | 0.015 | clearance of tumor cells from bone marrow and liver | all seven | elimination of lymphoma target cells in blood | neurological reactions have been found | -63 | -79 | CRu | 7 out of 22 |  | 
β-D-Xylan, (1-4), 2,3-bis(hydrogen sulphate) [PPS] |  |  |  |  |  |  |  |  |  | prevented | slight tremor
